pIC50: −log10 of the molar value. Values after ≈ are worked out from the molar mass of the structure shown.
Experiments:
[1] = Antiproliferative activity against mouse BaF3/TRP-Met cells assessed as reduction in cell growth incubated for 72 hrs by SRB assay; conditions: BaF3, 72 h
[2] = tested on: NIH3T3; assay: Antiproliferative activity against mouse NIH3T3/TRP-Met cells assessed as reduction in cell growth incubated for 72 hrs by SRB assay; conditions: NIH3T3, 72 h
[3] = tested on: NIH3T3; assay: Antiproliferative activity against mouse NIH3T3 cells assessed as reduction in cell growth incubated for 72 hrs by SRB assay; conditions: NIH3T3, 72 h
[4] = tested on: SNU1; assay: Antiproliferative activity against human SNU1 cells assessed as reduction in cell viability incubated for 72 hrs by SRB assay; conditions: SNU1, 72 h
[5] = tested on: NCI-H661; assay: Antiproliferative activity against human NCI-H661 cells assessed as reduction in cell viability incubated for 72 hrs by SRB assay; conditions: NCI-H661, 72 h
[6] = target: T1, Hepatocyte growth factor receptor (Homo sapiens, UniProt P08581); assay: Inhibition of c-MET (unknown origin) incubated for 30 mins by ELISA method
T1 sequence (P08581 whole entry): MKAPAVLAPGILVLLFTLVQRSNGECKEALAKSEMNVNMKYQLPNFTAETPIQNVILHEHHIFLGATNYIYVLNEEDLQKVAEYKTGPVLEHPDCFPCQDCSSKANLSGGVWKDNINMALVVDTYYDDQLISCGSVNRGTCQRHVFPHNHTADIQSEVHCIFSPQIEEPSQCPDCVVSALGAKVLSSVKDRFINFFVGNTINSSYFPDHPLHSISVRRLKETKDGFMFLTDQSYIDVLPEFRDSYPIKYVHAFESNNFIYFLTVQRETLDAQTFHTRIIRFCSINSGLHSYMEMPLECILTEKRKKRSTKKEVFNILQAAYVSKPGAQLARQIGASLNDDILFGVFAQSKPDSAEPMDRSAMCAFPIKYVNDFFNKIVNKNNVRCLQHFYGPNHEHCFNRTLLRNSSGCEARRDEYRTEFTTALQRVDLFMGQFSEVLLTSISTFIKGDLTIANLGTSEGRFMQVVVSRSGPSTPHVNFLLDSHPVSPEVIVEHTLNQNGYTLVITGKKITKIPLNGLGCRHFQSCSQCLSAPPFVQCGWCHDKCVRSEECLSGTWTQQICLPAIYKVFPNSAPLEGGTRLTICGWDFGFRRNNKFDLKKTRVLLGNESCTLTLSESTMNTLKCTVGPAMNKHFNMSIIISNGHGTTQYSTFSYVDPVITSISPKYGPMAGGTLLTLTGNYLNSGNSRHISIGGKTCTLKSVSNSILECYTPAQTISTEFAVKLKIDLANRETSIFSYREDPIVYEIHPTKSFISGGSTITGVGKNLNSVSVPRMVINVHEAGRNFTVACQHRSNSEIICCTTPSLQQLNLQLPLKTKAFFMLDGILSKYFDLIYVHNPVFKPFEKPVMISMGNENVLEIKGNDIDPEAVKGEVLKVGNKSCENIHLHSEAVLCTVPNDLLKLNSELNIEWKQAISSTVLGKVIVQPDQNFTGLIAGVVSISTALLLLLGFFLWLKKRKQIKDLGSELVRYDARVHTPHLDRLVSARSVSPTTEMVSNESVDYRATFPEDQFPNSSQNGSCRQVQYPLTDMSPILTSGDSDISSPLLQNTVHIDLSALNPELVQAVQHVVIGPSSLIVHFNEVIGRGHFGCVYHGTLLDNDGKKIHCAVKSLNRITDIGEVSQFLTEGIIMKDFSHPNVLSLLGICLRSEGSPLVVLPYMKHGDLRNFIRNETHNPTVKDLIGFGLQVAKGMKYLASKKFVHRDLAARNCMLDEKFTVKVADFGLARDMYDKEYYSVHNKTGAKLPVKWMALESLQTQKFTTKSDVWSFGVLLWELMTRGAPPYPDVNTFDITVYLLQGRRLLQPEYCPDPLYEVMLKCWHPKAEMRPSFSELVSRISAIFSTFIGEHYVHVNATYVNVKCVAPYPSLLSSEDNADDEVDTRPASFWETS

[7] = Antiproliferative activity against mouse BaF3/[…] cells assessed as reduction in cell viability incubated for 72 hrs by Cell-titer glo reagent based assay; type: functional; conditions: BaF3, 72 h
[8] = target: Epidermal growth factor receptor (Homo sapiens, UniProt P00533); assay: Inhibition of EGFR (unknown origin)
[9] = target: ALK tyrosine kinase receptor (Homo sapiens, UniProt Q9UM73); assay: Inhibition of ALK (unknown origin)
Sequence of ALK tyrosine kinase receptor (Q9UM73 whole entry): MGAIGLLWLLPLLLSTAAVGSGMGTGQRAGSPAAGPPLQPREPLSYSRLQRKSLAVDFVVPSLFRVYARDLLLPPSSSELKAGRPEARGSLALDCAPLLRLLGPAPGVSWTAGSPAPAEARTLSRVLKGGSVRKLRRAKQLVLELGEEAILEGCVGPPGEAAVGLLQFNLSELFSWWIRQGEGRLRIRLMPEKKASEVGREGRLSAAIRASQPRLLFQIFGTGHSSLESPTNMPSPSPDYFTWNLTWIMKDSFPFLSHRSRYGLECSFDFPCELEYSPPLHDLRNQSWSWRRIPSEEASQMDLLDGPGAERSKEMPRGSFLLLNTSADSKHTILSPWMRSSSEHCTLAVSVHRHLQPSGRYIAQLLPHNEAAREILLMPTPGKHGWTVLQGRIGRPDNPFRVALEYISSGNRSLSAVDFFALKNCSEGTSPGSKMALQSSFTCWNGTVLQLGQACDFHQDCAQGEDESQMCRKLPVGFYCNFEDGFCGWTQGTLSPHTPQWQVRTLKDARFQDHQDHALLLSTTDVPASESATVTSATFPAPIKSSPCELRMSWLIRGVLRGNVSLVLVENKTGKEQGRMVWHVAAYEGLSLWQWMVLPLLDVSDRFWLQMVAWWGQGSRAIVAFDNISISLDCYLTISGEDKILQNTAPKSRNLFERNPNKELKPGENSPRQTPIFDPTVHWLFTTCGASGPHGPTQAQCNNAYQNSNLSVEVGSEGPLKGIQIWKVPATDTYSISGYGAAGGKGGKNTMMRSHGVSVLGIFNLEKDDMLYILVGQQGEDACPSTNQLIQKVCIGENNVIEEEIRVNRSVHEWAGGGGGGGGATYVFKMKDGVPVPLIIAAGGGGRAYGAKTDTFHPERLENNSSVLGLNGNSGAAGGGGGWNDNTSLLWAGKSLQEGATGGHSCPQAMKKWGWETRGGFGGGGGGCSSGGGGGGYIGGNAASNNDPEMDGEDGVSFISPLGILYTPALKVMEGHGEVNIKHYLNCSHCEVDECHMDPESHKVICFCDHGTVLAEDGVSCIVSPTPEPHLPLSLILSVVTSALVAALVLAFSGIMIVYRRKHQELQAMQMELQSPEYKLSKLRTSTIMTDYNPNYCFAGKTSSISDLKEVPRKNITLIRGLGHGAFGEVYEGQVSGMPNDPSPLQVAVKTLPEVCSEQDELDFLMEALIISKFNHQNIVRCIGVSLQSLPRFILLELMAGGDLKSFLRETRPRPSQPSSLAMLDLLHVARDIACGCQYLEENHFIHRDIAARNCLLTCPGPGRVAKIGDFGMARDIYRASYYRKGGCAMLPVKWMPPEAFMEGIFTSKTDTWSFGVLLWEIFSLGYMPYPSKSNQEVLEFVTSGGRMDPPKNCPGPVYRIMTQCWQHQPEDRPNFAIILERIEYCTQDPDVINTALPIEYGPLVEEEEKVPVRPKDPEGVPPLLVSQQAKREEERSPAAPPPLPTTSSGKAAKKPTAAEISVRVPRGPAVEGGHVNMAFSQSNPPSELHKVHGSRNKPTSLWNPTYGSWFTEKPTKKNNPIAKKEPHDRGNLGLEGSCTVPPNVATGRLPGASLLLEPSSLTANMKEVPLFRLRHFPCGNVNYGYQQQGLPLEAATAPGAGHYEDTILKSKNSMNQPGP

[10] = target: Proto-oncogene tyrosine-protein kinase receptor Ret (Homo sapiens, UniProt P07949); assay: Inhibition of RET (unknown origin)
Sequence of Proto-oncogene tyrosine-protein kinase receptor Ret (P07949 whole entry): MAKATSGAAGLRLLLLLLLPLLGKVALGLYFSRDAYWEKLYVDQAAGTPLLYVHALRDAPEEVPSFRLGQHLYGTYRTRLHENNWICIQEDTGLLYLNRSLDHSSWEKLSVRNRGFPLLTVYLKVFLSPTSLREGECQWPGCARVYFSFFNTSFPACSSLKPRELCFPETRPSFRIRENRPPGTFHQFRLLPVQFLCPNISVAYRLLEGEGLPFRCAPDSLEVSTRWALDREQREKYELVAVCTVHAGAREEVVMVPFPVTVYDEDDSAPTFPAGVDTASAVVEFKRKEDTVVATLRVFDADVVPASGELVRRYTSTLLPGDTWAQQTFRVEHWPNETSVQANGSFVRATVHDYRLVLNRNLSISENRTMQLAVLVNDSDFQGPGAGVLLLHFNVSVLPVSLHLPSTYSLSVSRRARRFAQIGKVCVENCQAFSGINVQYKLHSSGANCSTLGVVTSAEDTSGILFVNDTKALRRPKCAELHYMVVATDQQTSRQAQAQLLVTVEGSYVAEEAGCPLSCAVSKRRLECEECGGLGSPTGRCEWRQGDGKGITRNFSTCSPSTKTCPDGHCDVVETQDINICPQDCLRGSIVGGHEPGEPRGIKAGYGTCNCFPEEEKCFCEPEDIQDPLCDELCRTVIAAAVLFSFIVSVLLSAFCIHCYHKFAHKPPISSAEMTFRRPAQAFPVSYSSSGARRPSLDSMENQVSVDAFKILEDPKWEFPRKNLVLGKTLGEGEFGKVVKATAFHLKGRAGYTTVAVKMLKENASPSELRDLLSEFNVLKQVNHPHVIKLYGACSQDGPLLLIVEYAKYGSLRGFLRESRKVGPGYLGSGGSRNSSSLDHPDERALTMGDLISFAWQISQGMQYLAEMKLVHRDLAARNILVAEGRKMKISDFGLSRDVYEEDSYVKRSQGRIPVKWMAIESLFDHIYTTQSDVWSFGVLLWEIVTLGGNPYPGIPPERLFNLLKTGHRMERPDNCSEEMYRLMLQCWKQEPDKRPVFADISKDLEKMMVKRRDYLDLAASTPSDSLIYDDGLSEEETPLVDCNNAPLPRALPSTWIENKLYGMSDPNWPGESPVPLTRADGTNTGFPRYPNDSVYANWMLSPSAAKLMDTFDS

[11] = target: T2, CYP3A4 (Homo sapiens, UniProt P08684); assay: Inhibition of CYP3A4 (unknown origin); type: ADME
T2 sequence (P08684 whole entry): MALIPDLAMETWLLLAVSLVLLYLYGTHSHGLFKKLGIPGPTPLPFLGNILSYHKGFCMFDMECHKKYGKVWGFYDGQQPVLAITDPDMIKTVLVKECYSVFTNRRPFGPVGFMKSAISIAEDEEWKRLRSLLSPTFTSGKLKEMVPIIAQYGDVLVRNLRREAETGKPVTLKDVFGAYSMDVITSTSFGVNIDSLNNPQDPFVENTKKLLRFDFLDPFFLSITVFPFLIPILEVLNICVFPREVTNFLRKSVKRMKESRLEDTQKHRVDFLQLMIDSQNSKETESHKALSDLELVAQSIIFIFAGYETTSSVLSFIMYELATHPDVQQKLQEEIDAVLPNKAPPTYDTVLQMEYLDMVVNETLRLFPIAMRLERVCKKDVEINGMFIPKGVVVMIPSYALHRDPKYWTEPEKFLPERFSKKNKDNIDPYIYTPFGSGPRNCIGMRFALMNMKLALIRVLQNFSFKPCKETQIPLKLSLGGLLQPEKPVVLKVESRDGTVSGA

[12] = target: T2, CYP3A4; assay: Inhibition of CYP3A4 in human liver microsomes; type: ADME, Microsome
[13] = target: Cytochrome P450 3A4 (Homo sapiens, UniProt P08684); assay: Inhibition of CYP3A4 in human liver microsome assessed as fold change; type: ADME; conditions: microsomes
Sequence of Cytochrome P450 3A4 (P08684 whole entry): as above

[14] = tested on: HepG2; assay: Antiproliferative activity against human HepG2 cells assessed as reduction in cell viability incubated for 72 hrs by MTT assay; type: functional, cell-based; conditions: HepG2, 72 h
[15] = target: T1, Hepatocyte growth factor receptor; assay: Inhibition of c-MET (unknown origin) using poly (Glu,Tyr) 4:1 as substrate incubated for 30 mins by ADP-Glo reagent based analysis
[16] = Water solubility of compound at pH 7 incubated for 2 hrs by HPLC analysis; type: physicochemical
[17] = tested on: MKN-45; assay: Antiproliferative activity against human MKN-45 cells assessed as reduction in cell viability incubated for 72 hrs by Cell-titer glo luminescent assay; type: functional, cell-based; conditions: MKN-45, 72 h
[18] = tested on: EBC-1; assay: Antiproliferative activity against human EBC-1 cells assessed as reduction in cell viability incubated for 72 hrs by Cell-titer glo luminescent assay; type: functional, cell-based; conditions: EBC-1, 72 h
[19] = target: T1, Hepatocyte growth factor receptor; assay: Inhibition of c-Met (unknown origin)

COc1ccc2c(OCc3nnc4ncc(-c5ccccc5)nn34)ccnc2c1
pIC50 [1]: 7.63
pIC50 [2]: 7.10
pIC50 [3]: < 4.30
pIC50 [4]: < 4.30
pIC50 [5]: < 4.30

Clc1ccc(-c2cn3cccc(COc4nnc5ccc(Cl)nn45)c3n2)c(Cl)c1
pIC50 [6]: 7.21
pIC50 [7]: 6.57
pIC50 [8]: 4.81
pIC50 [9]: 4.87
pIC50 [10]: 4.91

COc1ccc2c(NCc3nnc4ccc(-c5ccccc5)nn34)ccnc2c1
pIC50 [11]: < 4.30
pIC50 [12]: < 4.30
fold change (FC) [13]: > 1

COc1ccc2c(SCc3nnc4ccc(-c5ccccc5)nn34)ccnc2c1
fold change (FC) [13]: 0.64

Cc1ccc(-c2cnc3nnc(SCc4ccncc4)n3n2)cc1
pIC50 [14]: 6.13
pIC50 [15]: 8.34

Brc1ccc(-c2cnc3nnc(SCc4cccnc4)n3n2)cc1
pIC50 [14]: 6.15
pIC50 [15]: 8.19

Oc1ccc(-c2cnc3nnc(SCc4ccncc4)n3n2)cc1
solubility at 2 h [16]: 3.6 µg/mL (≈ 10.7 µM)

Cc1[nH]c2ncc(-c3cnn(C4CCNCC4)c3)cc2c1C(C)c1c(Cl)ccc(F)c1Cl (centres undefined)
pIC50 [17]: 5.70
pIC50 [18]: 5.62

Cc1ccc(-c2cnc3nnc(SCc4cccnc4)n3n2)cc1
pIC50 [14]: 5.99
pIC50 [15]: 8.25

CC(c1c(Cl)ccc(F)c1Cl)c1c(Cl)[nH]c2ncc(-c3cnn(C4CCNCC4)c3)cc12 (centres undefined)
pIC50 [17]: 5.19
pIC50 [18]: 5.04

Oc1ccc(-c2cnc3nnc(NCc4ccncc4)n3n2)cc1
pIC50 [14]: 5.51
pIC50 [15]: 7.28
solubility at 2 h [16]: 203 µg/mL (≈ 636 µM)

Clc1ccc(Cl)c(-c2cn3cccc(COc4nnc5ccc(Cl)nn45)c3n2)c1
pIC50 [6]: 7.28
pIC50 [7]: 6.60
pIC50 [8]: 4.85
pIC50 [9]: 4.95
pIC50 [10]: 4.91

COc1ccc2c(OCc3nnc4ccc(-c5ccccc5)nn34)ccnc2c1 [AMG-208]
pIC50 [19]: 8.36

Source: ChEMBL document CHEMBL6109043, “Advances in the selective c-MET kinase inhibitors: Application of fused [5,6]-Bicyclic nitrogen-containing cores for anticancer drug design” (Eur J Med Chem, 2025)
